From patent US20090075898A1, “Complement C3A Derived Peptides and Uses Thereof” (Yeda Research and Development Co. Ltd. at the Weizmann …, priority 2005, published 2009) come the findings set out here.

One experiment has as its system RBL-2H3 cells. The conditions noted are these: for Inhibition of IgE-mediated β-hexosaminidase release from RBL-2H3 cells: peptides 5 min prior to suboptimal (5 ng/ml) antigen dose; for Inhibition of IgE-mediated β-hexoseaminidase secretion from RBL-2H3 (FIG. 1B): 250 μg of peptide.
Experiment [1] deals with bone marrow derived mast cells (BMMC). Kind of experiment: Secretory response (β-hexosaminidase release) of bone marrow derived mast cells. The experiment is classed as cell-based, mouse. The procedure: Cells. Bone marrow derived mast cells (BMMC) were prepared from Balb/c mice as described by Nagao et al. (Science 212: 333-335, 1981). After 3 weeks, an approximately 95% pure mast cell population was obtained, showing high expression of FcεRI and stem cell factor receptor (c-kit), as measured by flow cytometry.
Secretory response of mast cells.
Similar experiments were carried out using bone-marrow derived mast cells (BMMC). […] The control peptide of the sequence DVSNYITR had no effect on either system.

The next experiment concerns Lyn. The experiment is described as follows: Phosphorylation of Lyn in RBL-2H3 cells, Western blot. The class given is cell-based, rat. As to conditions: for Phosphorylation of Lyn: cells stimulated by antigen in the presence of peptide. Here is the method: Immunoprecipitation and Western blot. Mast cells were seeded in 10 cm Petri dishes (7×10^6 cells/dish) and saturated with A2IgE at 37° C. in DMEM overnight. […] The reaction was terminated by 500 μl lysis buffer (1% Triton X-100, 50 mM HEPES, 100 mM NaF, 10 mM EDTA, 2 mM sodium orthovanadate, 10% glycerol, 10 mM sodium pyrophosphate, protease inhibitor cocktail 1:200, pH 7.4) per dish. The cells were scraped and the protein content of the post nuclear supernatants was adjusted to equal values using the Bradford-assay prior to precipitation by PT-66 phosphotyrosine specific antibody coated beads (10 μl beads per sample). The proteins were eluted by sample buffer containing 2-mercaptoethanol and were separated by SDS-PAGE, electrotransferred onto a nitrocellulose membrane and developed using the indicated antibodies and detected by ECL.
(§1) These are known to include phosphorylation by the src-family PTK Lyn of the ITAMs of the FcεRI β and γ subunits.
(§2) The inhibitory action of the peptide C3a31 on the FcεRI coupling cascade was also investigated using the rat mucosal-type RBL-2H3 line.

Experiment [2] has as its system passive systemic anaphylaxis in mice. Kind of experiment: Passive systemic anaphylaxis, blood histamine. The class given is in vivo, mouse. As to conditions: peptide solution onto the nostrils before DNP-HSA antigen. The procedure:
Passive Systemic Anaphylaxis. Mice (Balb/c) were anesthetized with 300-400 μl of avertin and injected with 3 μg of the IgE class DNP-specific monoclonal antibody (SPE-7, Sigma) in 200 μl PBS by retroorbital injection (or tail vein). After 24 hours, mice were anesthetized with 300-400 μl of avertin and exposed to ca. 100 μl of the indicated peptide (inhibitory, SEQ ID NO:11, a control reversed peptide of SEQ ID NO:35 or peptide GAKDGNEYI-COOH of SEQ ID NO:36) solution in PBS positioned onto the nostrils. This was followed by injection of the antigen (DNP-derivatized human serum albumin, HSA, 100 μg in 200 μl of PBS) or PBS only, by retroorbital injection (or tail vein). After 1.5 minutes, mice were sacrificed by cervical dislocation and cardiac puncture performed. Heparin-rinsed syringes were now used for aspiration. Blood samples were spun at 4 degrees for 10 minutes at 8000 rpm in tabletop. Histamine was assayed by the Immunotech protocol for competitive ALP assay.
The effect of C3a derived peptides on passive systemic anaphylaxis in mice was examined. […] The reverse peptide denoted C3a55 amide was ineffective (FIG. 5). A control group was treated with a non-relevant peptide having the amino acid sequence GAKDGNEYI-COOH of SEQ ID NO:36 prior to the injection of the antigen DNP-HSA.

The subject of experiment [3] is ovalbumin-sensitized asthmatic mice. The experiment is described as follows: Murine asthma model, cell distribution in broncho alveolar lavage. The experiment is classed as in vivo, mouse. Here is the method:
(§3) Inhibitory effect of the peptides on pulmonary functions. Mice (Balb/c, female, 8 weeks old) were first sensitized by ip injection of the antigen (Ag) ovalbumin. Thereafter, the mice were challenged 4 times by aerosol inhalation of the same Ag dispersed by nebulizer in a plexiglass chamber for about 20 min at one-week intervals. On day 28, the mice were first treated with an aerosol of the tested peptides dissolved in 0.1 M NaHCO3 and dispersed as above. As a result, the aerosol was inhaled by the animals for about 10 to 20 minutes. After inhalation, the animals were immediately challenged by inhalation (as above) of the sensitizing antigen (5% OVA in PBS) for 20 min. At the end of this treatment, the mice were immediately tested for pulmonary functions in conscious, freely moving state using plethysmography.
The degree of bronchial constriction was monitored by the enhanced pause and its relation to airway resistance, impedance and intrapleural pressure in the mouse. Bronchoalveolar lavage (BAL) samples were obtained from these mice by cannulating the trachea, injecting 0.8 ml ice-cold saline (×2) and subsequently aspirating the BAL fluid. Following these tests, mice were sacrificed using general anesthesia with brevital (1 mg/ml). Their chests wall were opened, blood withdrawn and lungs were perfused with cold PBS and examined for cytology and histology.
Table 3 provides results of analysis of the cells present in bronchi alveolar lavage (BAL) of mice treated by the same protocols as those subjected to analysis of lung function.

The subject of another experiment is PAG. Kind of experiment: PAG phosphorylation in RBL-2H3 cells. The experiment is classed as cell-based, rat. Here is the method:
(§4) The inhibitory action of the peptide C3a31 on the FcεRI coupling cascade was also investigated using the rat mucosal-type RBL-2H3 line. Results of these experiments have shown that peptide C3a31 inhibited the phosphorylation of the protein tyrosine kinase Lyn and of the FcεRI β-chain. The inhibition on Lyn phosphorylation was observed after 1 min, and that on PAG phosphorylation (PAG has an important role in the regulation of src family kinases) after 3 min. However, C3a31 was also shown to enhance Lyn phosphorylation after 3 min. In addition, C3a31 inhibited Dok-1 phosphorylation after 5 min, but had no effect after 8 min.

Another experiment has as its system FcεRI β chain. The experiment is described as follows: Phosphorylation of FcεRI β chain in RBL-2H3 cells, Western blot. The class given is cell-based, rat. The conditions noted are these: cells stimulated by antigen in the presence of peptide. The procedure:
Immunoprecipitation and Western blot. Mast cells were seeded in 10 cm Petri dishes (7×10^6 cells/dish) and saturated with A2IgE at 37° C. in DMEM overnight. After washing they were treated with peptides for 5 min and FcεRI was clustered by incubating with 5 ng/ml DNP11-BSA at 37° C. for 2 min. The reaction was terminated by 500 μl lysis buffer (1% Triton X-100, 50 mM HEPES, 100 mM NaF, 10 mM EDTA, 2 mM sodium orthovanadate, 10% glycerol, 10 mM sodium pyrophosphate, protease inhibitor cocktail 1:200, pH 7.4) per dish. The cells were scraped and the protein content of the post nuclear supernatants was adjusted to equal values using the Bradford-assay prior to precipitation by PT-66 phosphotyrosine specific antibody coated beads (10 μl beads per sample). The proteins were eluted by sample buffer containing 2-mercaptoethanol and were separated by SDS-PAGE, electrotransferred onto a nitrocellulose membrane and developed using the indicated antibodies and detected by ECL.
as §1, §2

The test system of experiment [4] is ovalbumin-sensitized asthmatic mice. Kind of experiment: Murine asthma model, lung function by plethysmography. The class given is in vivo, mouse. As to conditions: peptide aerosol prior to final ovalbumin challenge. Here is the method: as §3
The degree of bronchial constriction was monitored by the enhanced pause and its relation to airway resistance, impedance and intrapleural pressure in the mouse. Bronchoalveolar lavage (BAL) samples were obtained from these mice by cannulating the trachea, injecting 0.8 ml ice-cold saline (×2) and subsequently aspirating the BAL fluid. Following these tests, mice were sacrificed using general anesthesia with brevital (1 mg/ml). Their chests wall were opened, blood withdrawn and lungs were perfused with cold PBS and examined for cytology and histology. […]

For the next experiment, the system named is PLCγ-2. Kind of experiment: PLCγ-2 phosphorylation in RBL-2H3 cells. The class given is cell-based, rat.
Another experiment has as its system Dok-1. Kind of experiment: Dok-1 phosphorylation in RBL-2H3 cells. The experiment is classed as cell-based, rat. Here is the method: as §4

Square brackets hold non-standard residues; d marks the D form. Ends that are not written are not given here.

Turning to “CCNYG (derived from human sequence) [C3a13]”, the “Inhibition of IgE-mediated β-hexosaminidase release from RBL-2H3 cells” value (from here on “Inhibition … from RBL-2H3 cells”) with RBL-2H3 cells was “shown to inhibit”.
Regarding “D-Ala-D-Ala-Asp-Ser-Ser-Asn-Tyr-Ile-Thr-Arg-NH2 ([dA][dA]DSSNYITR-NH2; N-terminus assumed; SMILES CC[C@H](C)[C@H](NC(=O)[C@H](Cc1ccc(O)cc1)NC(=O)[C@H](CC(N)=O)NC(=O)[C@H](CO)NC(=O)[C@H](CO)NC(=O)[C@H](CC(=O)O)NC(=O)[C@@H](C)NC(=O)[C@@H](C)N)C(=O)N[C@H](C(=O)N[C@@H](CCCNC(=N)N)C(N)=O)[C@@H](C)O) [C3a32]”, the “Inhibition of IgE-mediated β-hexoseaminidase secretion from RBL-2H3 (FIG. 1B)” value in the experiment on RBL-2H3 cells was “found to inhibit”.
Consider DSSNYIR [C3a11], for which, in the experiment on RBL-2H3 cells, the “Inhibition … from RBL-2H3 cells” value is on record as “shown to inhibit”.
In the case of “DVSNYITR [Control peptide, reference compound]”, the “Inhibition of IgE-mediated secretory response of BMMC” value in [1] is listed as “had no effect”. Further, the “Inhibitory effect (IC50) on the IgE-mediated degranulation of BMMC” value in [1] (suboptimal antigen-dose) is recorded as “No effect”. In addition, the “Inhibition … from RBL-2H3 cells” value in the experiment with RBL-2H3 cells is reported as “had no effect”. The “Inhibitory effect (IC50) on the IgE-mediated degranulation of RBL-2H3” value in the experiment with RBL-2H3 cells (suboptimal antigen-dose) was “No effect”. Besides, the “Phosphorylation of Lyn” value in the experiment with Lyn is “had no effect”.
Take “RTIYNSSDS (RTIYNSSDS-NH2) [C3a55, reference compound]”: the “Symptoms of passive systemic anaphylaxis, histamine levels in mice blood” value in experiment [2] is “ineffective”.
As for “Ser-Asp-Ser-Ser-Asn-Tyr-Ile-Thr-Arg-NH2 (SDSSNYITR-NH2) [C3a31]”, in experiment [3] (OVA + peptide aerosol), the “Eosinophils in BAL” value is listed as 4%, the “Lymphocutes in BAL” value came out at 81%, the “Macrophages in BAL” value turned out to be 1% and the “Mast Cells in BAL” value is listed as 4%. In addition, the “Neutrophils in BAL” value in [3] (OVA + peptide aerosol) worked out at 13%. Also, the “Type of cells detected in the BAL” value in experiment [3] (peptide aerosol treatment) is “markedly affected”. Also, the “PAG phosphorylation after 3 min” value in the experiment on PAG is given as “inhibition”. For the same substance, the “Symptoms of passive systemic anaphylaxis, histamine levels in mice blood” value in [2] is “found to reduce”. Also, the “Phosphorylation of the FcεRI β chain” value in the experiment on FcεRI β chain was “inhibited”. In addition, the “Inhibition of IgE-mediated β-hexoseaminidase secretion from RBL-2H3 (FIG. 1B)” value with RBL-2H3 cells is listed as “found to inhibit”. Moreover, the “Antigen-induced symptoms (lung airway resistance) in asthma model” value in experiment [4] is “effective in reducing”. The “Phosphorylation of PLCγ-2” value with PLCγ-2 is on record as “inhibited”. Further, the “Lyn phosphorylation after 1 min” value in the experiment with Lyn (after 1 min) is on record as “inhibition”. Besides, in the experiment on Lyn (after 3 min), the “Lyn phosphorylation after 3 min” value is “enhance”. Further, the “Phosphorylation of Lyn” value in the experiment on Lyn is listed as “inhibited”. Further, in the experiment with Dok-1 (after 5 min), the “Dok-1 phosphorylation after 5 min” value is “inhibited”. Also, the “Dok-1 phosphorylation after 8 min” value with Dok-1 (after 8 min) is on record as “had no effect”.
